Laboratory results reported in article PMC9435431, “Novel chemical entities inhibiting Mycobacterium tuberculosis growth identified by phenotypic high-throughput screening” (Scientific Reports, 2022).
Converted amounts (≈) assume the structure as drawn. Where two headings read alike, the source gives them in different places.

Columns and labels:
[1] = test system: M. tuberculosis H37Rv; assay: microbe, parasite or virus in culture; type: cell-based; details: Mycobacterium tuberculosis, 120 h
[2] = test system: wild-type M. tuberculosis; assay: microbe, parasite or virus in culture; type: cell-based, Mycobacterium tuberculosis; details: for MIC / IC90: Mycobacterium tuberculosis
[3] = in vitro; type: cell-based; details: human; for IC20: concentration for 20% inhibition of HepG2 cells, 72 h, n = 2
Method: HepG2 cells were seeded at 2000 cells per well in 384-well, black, clear bottom PDL coated plates in MEM medium supplemented with 10% FBS, 2 mM L-glutamine, 1 mM sodium pyruvate and incubated overnight at 37C, 5% CO2. Compounds were added and plates incubated for 72 h. Cell viability was measured using the CyQUANT® reagent and imaging on a ViewLux™ ultraHTS Microplate Imager. The IC20 and IC50 were calculated from dose response curves.

[4] = test system: M. tuberculosis; assay: microbe, parasite or virus in culture; type: cell-based; details: Mycobacterium tuberculosis, read-out: MIC on solid medium
[5] = in vitro; type: in vitro ADME, human; details: for CLint scaled at 0.5 µM: human, microsomes, pH 7.4, human Clint; for microsomal clearance / stability (in words): human microsomes
Method: Compounds (0.5 µM) were incubated with 0.25 mg/mL liver microsomal proteins at pH 7.4 at 37 °C. Reactions were initiated with […] and samples taken at 0, 5, 10, 15, 20 and 30 min. The reaction was stopped by addition of 95% ACN/5% MeOH containing an internal standard. Samples were combined in compound groups of six pre-sorted by mono molecular weight and analyzed by LC/MS/MS. The peak area ratios (analyte peak area/IS peak area) were converted to % remaining using the area ratio at time 0 as 100%. The. half-life (T ½) and intrinsic clearance (mCLint) were calculated.

[6] = Table 5, read-out: Wild-type MIC

| Compound | inhibition at 20 µM ([1]; read-out: % Inhibition Run 1) [%] | inhibition at 20 µM ([1]; read-out: % Inhibition Run 2) [%] | MIC ([2]; read-out: MTB MIC) [µM] | IC20 at 72 h [3] [µM] | MIC ([2]; 120 h, read-out: MIC) [µM] | CLint scaled at 0.5 µM [5] [L/h/kg] | also measured |
| --- | --- | --- | --- | --- | --- | --- | --- |
| Cc1cnc(-n2nnc3ccccc3c2=O)s1 [BTT] | 100 | 100 | 4.8 (≈ 1.17 µg/mL) | 37 | – | – | – |
| C=CCc1c(C)nc(-c2ccccn2)nc1O [PDPO-1] | 99 | 96 | 23 (≈ 5.23 µg/mL) | 2.8 | – | – | – |
| Cc1ccc(-c2nnc(C)c(N3CCCC3)n2)cc1 [PYT] | 100 | 98 | 11 (≈ 2.8 µg/mL) | 23 | – | – | IC90 [2]: 11 µM |
| O=C(O)C(F)(F)F.c1cc(C2CCN(CC3CCCCC3)CC2)ccn1 [Molecule 4PP-32, 4-[1-(Cyclohexylmethyl)-4-piperidyl]pyridine, 2,2,2-trifluoroacetic acid salt] | – | – | – | – | > 20 | – | anti-tubercular activity (in words) [2]: inactive; MIC [4]: 1.6 µM |
| Clc1ccc(-c2nc(Cn3ccnc3)cs2)cc1 [AMT-1] | 98 | 96 | 35 (≈ 9.65 µg/mL) | 34 | – | – | – |
| c1ccc(-c2cncc(N3CC4CC5CC3CN(C5)C4)c2)cc1 (stereo not drawn) [AAP] | 99 | 97 | – | – | – | – | MIC ([2]; 120 h, read-out: MTB MIC): 23 µM (≈ 7.02 µg/mL); IC20 [3]: 27 µM |
| NCC(c1ccco1)S(=O)(=O)c1ccccc1 (stereo not drawn) [FAS] | 100 | 100 | 9.5 (≈ 2.39 µg/mL) | 2 | – | – | – |
| O=S(=O)(Nc1ccccc1-c1nn[nH]n1)c1ccc(OC(F)(F)F)cc1 [APT] | 99 | 99 | 6.9 (≈ 2.66 µg/mL) | 0.47 | – | – | – |
| O=C(Nc1nc2ccccc2s1)NC1C2CC3CC(C2)CC1C3 (stereo not drawn) [HBU-1] | 100 | 100 | – | 8.2 | – | – | IC90 [2]: 4.2 µM; MIC ([2]; 120 h, read-out: MTB MIC): 4.2 µM (≈ 1.38 µg/mL) |
| N#C/C(=C\NC1CCCCC1)c1nc2ccccc2[nH]1 [BCI-2] | 100 | 100 | 9.6 (≈ 2.56 µg/mL) | 0.85 | – | – | – |
| O=C(NCCc1cccc(Br)c1)C1(c2ccccc2Br)CCC1 [PCB-21, N-(3-bromophenethyl)-1-(2-bromophenyl)cyclobutane-1-carboxamide] | – | – | – | – | 2 ± 0.5 (≈ 0.874 µg/mL) | 813 | MIC [2, 6]: 2 µM (≈ 0.874 µg/mL); MIC [4]: 1.25 µM (≈ 0.546 µg/mL) |
| CNc1cc(-c2ccccn2)nc(-c2ccccn2)n1 [APDP-1] | 99 | 100 | 10 (≈ 2.63 µg/mL) | 0.028 | – | – | IC90 [2]: 10 µM |
| CCC1(N2CCC(c3ccccc3)CC2)CCCCC1 [Molecule 4PP-1, 1-(1-Ethyl-cyclohexyl)-4-phenyl-piperidine] | 100 | 99 | 6.3 (≈ 1.71 µg/mL) | – | 6.3 ± 2.7 (≈ 1.71 µg/mL) | – | IC90 [2]: 6.3 µM; MIC [2, 6]: 6.3 µM (≈ 1.71 µg/mL); MIC ([2]; read-out: MIC): 6.3 µM (≈ 1.71 µg/mL); IC20 [3]: > 80 µM |
| c1ccc(N2CCN(Cc3cnc4ccccc4n3)CC2)cc1 [AMQ-5] | 98 | 99 | 7.8 (≈ 2.37 µg/mL) | 2 | – | – | – |
| Nc1ccnc(Nc2ccccc2Nc2ccccc2)n1 [DAP] | 99 | 99 | 0.7 (≈ 0.194 µg/mL) | 0.83 | – | – | – |
| CC(C)c1ccc(-n2nnn(C(=O)N(C)C3CCOCC3)c2=O)cc1Cl [PTZ-3] | 96 | 6 | 5.2 (≈ 1.98 µg/mL) | – | – | – | IC20 [3]: 26 µM |
| CN(Cc1cn2c3ccccc3n(C)c2n1)C12CC3CC(CC(C3)C1)C2 [PZI] | 98 | 98 | 9.3 (≈ 3.24 µg/mL) | 15 | – | – | – |
| CC(=O)n1cc(Nc2ccccc2O)c2ccccc21 [ACI-2] | 100 | 100 | 4.5 (≈ 1.2 µg/mL) | 30 | – | – | – |
| O=C(NCCc1cccc(Br)c1)C1(c2cccc(Cl)c2)CCC1 [PCB-16, N-(3-bromophenethyl)-1-(3-chlorophenyl)cyclobutane-1-carboxamide] | – | – | – | – | 5 ± 1.6 (≈ 1.96 µg/mL) | 552 | anti-tubercular activity (in words) [2]: little change; MIC [2, 6]: 5 µM (≈ 1.96 µg/mL); microsomal clearance / stability (in words) [5]: clearances increased |

| Compound | inhibition at 20 µM ([1]; read-out: % Inhibition Run 1) [%] | inhibition at 20 µM ([1]; read-out: % Inhibition Run 2) [%] | MIC ([2]; read-out: MTB MIC) [µM] | IC20 at 72 h [3] [µM] | MIC ([2]; 120 h, read-out: MIC) [µM] | CLint scaled at 0.5 µM [5] [L/h/kg] | also measured |
| --- | --- | --- | --- | --- | --- | --- | --- |
| COc1ccc(CCNC(=O)C2(c3ccccc3)CCC2)cc1Br [PCB-1, N-(3-bromo-4-methoxyphenethyl)-1-phenylcyclobutane-1-carboxamide] | 100 | 100 | 6.9 (≈ 2.68 µg/mL) | 33 | 6.9 ± 1.7 (≈ 2.68 µg/mL) | 79.7 | MIC ([2]; read-out: MIC): 6.9 µM (≈ 2.68 µg/mL) |
| O=C(c1c(Cl)cccc1Cl)N1COCN(c2ccc(C(F)(F)F)cc2)C1=O [ACU-1] | 98 | 98 | 7.6 (≈ 3.19 µg/mL) | 65 | – | – | – |
| O=C(NCCc1cccc(Br)c1)C1(c2ccccc2)CCC1 [PCB-5, N-(3-bromophenethyl)-1-phenylcyclobutane-1-carboxamide] | – | – | – | – | 4.9 ± 1.7 (≈ 1.76 µg/mL) | 236 | MIC ([2]; read-out: MIC): 4.9 µM (≈ 1.76 µg/mL) |
| Cc1cc(NC2CCCCC2)nc(-n2nc(C)cc2C)n1 [PZP-3] | 98 | 98 | 4.5 (≈ 1.28 µg/mL) | 47 | – | – | IC90 [2]: 4.5 µM |
| Cc1nc2ccccn2c1-c1ccn(Cc2ccccc2)n1 [PPP-1] | 100 | 98 | 38 (≈ 11 µg/mL) | 4.3 | – | – | – |
| COc1ccc(CCNC(=O)C2(c3ccc(F)cc3)CCC2)cc1Br [PCB-26, N-(3-bromo-4-methoxyphenethyl)-1-(4-fluorophenyl)cyclobutane-1-carboxamide] | – | – | – | – | 2.8 ± 0.1 (≈ 1.14 µg/mL) | 149 | MIC ([2]; read-out: MIC): 2.8 µM (≈ 1.14 µg/mL); microsomal clearance / stability (in words) [5]: at the expense of clearance |
| CCC(=O)Nc1nc(-c2nc3ccccc3oc2=O)cs1 [BOZ] | 99 | 100 | 4.8 (≈ 1.45 µg/mL) | 37 | – | – | – |
| Cc1ccccc1C1(C(=O)NCCc2cccc(C(F)(F)F)c2)CCC1 [PCB-29, 1-(o-tolyl)-N-(3-(trifluoromethyl)phenethyl)cyclobutane-1-carboxamide] | – | – | – | – | 0.45 ± 0.01 (≈ 0.163 µg/mL) | 883 | MIC ([2]; read-out: MIC): 0.45 µM (≈ 0.163 µg/mL); microsomal clearance / stability (in words) [5]: increase in clearance |
| CCOC(=O)c1oc2c(c1C)-c1nc(C)sc1CC2 [TZF] | 99 | 99 | 18 (≈ 4.99 µg/mL) | > 80 | – | – | – |
| CNC(=O)N(O)C1c2cccc(F)c2Oc2ccsc21 (stereo not drawn) [HDU-2] | 99 | 100 | 19 (≈ 5.59 µg/mL) | 42 | – | – | – |
| CN(CCc1cccc(Br)c1)C(=O)C1(c2ccccc2)CCC1 [PCB-14, N-(3-bromophenethyl)-N-methyl-1-phenylcyclobutane-1-carboxamide] | – | – | – | – | > 20 | 447 | anti-tubercular activity (in words) [2]: inactive; microsomal clearance / stability (in words) [5]: highly metabolized |
| O=C(N[C@H]1CCc2ccc(Br)cc2C1)C1(c2ccccc2)CCC1 [PCB-9, (S)-N-(7-bromo-1,2,3,4-tetrahydronaphthalen-2-yl)-1-phenylcyclobutane-1-carboxamide] | – | – | – | – | 6.9 ± 2.9 (≈ 2.65 µg/mL) | 273 | MIC ([2]; read-out: MIC): 6.9 µM (≈ 2.65 µg/mL); microsomal clearance / stability (in words) [5]: increased microsomal clearance |
| CC(=O)n1nccc1-c1sc(-c2cccs2)nc1C [TPT] | 99 | 99 | 7.1 (≈ 2.05 µg/mL) | > 80 | – | – | IC90 [2]: 7.1 µM |
| O=C(NCCc1cccc(C(F)(F)F)c1)C1(c2ccc(F)cc2)CCC1 [PCB-30, 1-(4-fluorophenyl)-N-(3-(trifluoromethyl)phenethyl)cyclobutane-1-carboxamide] | – | – | – | – | 0.99 ± 0.3 (≈ 0.362 µg/mL) | 121 | anti-tubercular activity (in words) [2]: slight reduction in activity; microsomal clearance / stability (in words) [5]: significantly improved clearance |
| O=C(CNC(=O)C1(c2ccccc2)CCC1)c1cccc(Br)c1 [PCB-12, N-(2-(3-bromophenyl)-2-oxoethyl)-1-phenylcyclobutane-1-carboxamide] | – | – | – | – | 7.3 ± 0.3 (≈ 2.72 µg/mL) | 47.3 | anti-tubercular activity (in words) [2]: tolerated; microsomal clearance / stability (in words) [5]: did not improve clearance |
| O=C(Nc1ncc2c(Br)cccc2n1)C1(c2ccccc2)CCC1 [PCB-10, N-(5-bromoquinazolin-2-yl)-1-phenylcyclobutane-1-carboxamide] | – | – | – | – | 9.3 ± 1 (≈ 3.56 µg/mL) | 14.4 | MIC ([2]; read-out: MIC): 9.3 µM (≈ 3.56 µg/mL); microsomal clearance / stability (in words) [5]: reasonable clearance |
| O=C(NCCc1cccc(Br)c1)C1(c2ccccc2)CC(F)(F)C1 [PCB-24, N-(3-bromophenethyl)-3,3-difluoro-1-phenylcyclobutane-1-carboxamide] | – | – | – | – | 15 ± 3.7 (≈ 5.91 µg/mL) | 263 | MIC ([2]; read-out: MIC): 15 µM (≈ 5.91 µg/mL); microsomal clearance / stability (in words) [5]: poor microsomal stability |
| Brc1cccc(-c2nc(C3(c4ccccc4)CCC3)no2)c1 [PCB-13, 5-(3-bromophenyl)-3-(1-phenylcyclobutyl)-1,2,4-oxadiazole] | – | – | – | – | > 20 | 266 | anti-tubercular activity (in words) [2]: loss of activity; microsomal clearance / stability (in words) [5]: high clearance |
